In US20220339135A1, “COMPOSITIONS AND METHODS FOR MODULATING AN INFLAMMATORY RESPONSE” (Enzychem Lifesciences Corporation, priority 2019, published 2022):

Assays:
HMGB1 and S100A9 = assay: Radiation-induced DAMP molecules in mice serum, western blot; format: in vivo; conditions: 6.11Gy, PLAG 50, 250 mg/kg oral 3 days
Procedure: The total-body of mice were irradiated with a gamma-ray of 6.11Gy on day 0. After that, the body weight of 1 day was measured and divided into 3 groups according to the average. PLAG (50, 250 mg/kg) or PBS was orally administered for 3 days from 1 day and sacrificed on the 3rd day. Add 3 ul serum to 97 ul of 1×SDS sample buffer and boiled for 10 min. Proteins from each sample were separated by sodium dodecyl sulfate-polyacrylamide gel electrophoresis on 8% polyacrylamide gels and the proteins were blotted onto a PVDF membrane (Millipore Corporation, Germany). The membrane was blocked with 5% non-fat dried milk (BD bioscience) in PBS containing 0.05% Tween-20 (Calbiochem) for 1 h. The membrane was incubated with anti-HMGB1 (abcam), anti-MRP14 (abcam) at 4° C. overnight. After washing with PBS containing 0.05% Tween-20, the membrane was stained with goat anti-rabbit IgG peroxidase (ENZO). Target proteins were detected with Immobilon Western Chemiluminescent HRP Substrate (Millipore Corporation).

[1] = system: radiation-induced lung injury; assay: Radiation-induced lung injury in mice; format: in vivo
Procedure: Balb/c mice were grouped into four groups: 1) control group, 2) radiation group, 3) radiation+EC-18 50 mg/kg of PLAG, and 4) radiation+EC-18 250 mg/kg of PLAG. Lung was extracted at day 3 after 6.11Gy of TBI by γ-ray (FIG. 37A). EC-18 was treated daily. Tissue was fixed with formaldehyde, and H&E staining was carried out.

[2] = system: ERK, JNK, p38MAPK in differentiated HaCaT cells; assay: IMQ-induced MAPK phosphorylation, western blot; format: cell-based; conditions: PLAG 1, 10, 100 μg/ml, dose-dependent
Procedure: Differentiated HaCaT cells were divided into three groups: 1) control (non-treated) group, 2) IMQ treated group, and 3) IMQ/PLAG treated group. For IMQ treated group, cells were stimulated with IMQ (5 μg/ml) for 0, 20, 60 minutes. For IMQ/PLAG treated group, cells were pre-incubated with PLAG (1, 10, 100 μg/ml) for 1 hour and then stimulated with IMQ (5 μg/ml) for an hour. Then, cells were harvested. Cells were ruptured with 1×RIPA lysis buffer (Cell Signaling Technology) containing the protease inhibitor (Roche, Indianapolis, Ind., USA), and phosphatase inhibitor (Thermo Fisher Scientific Inc.) on ice. The cell lysates were then clarified by centrifugation and samples were analyzed on polyacrylamide gels. Each sample was separated by sodium dodecyl sulfate-polyacrylamide gel electrophoresis (SDS-PAGE) on polyacrylamide gels and the proteins were blotted onto a PVDF membrane (Bio-Rad). The membrane was blocked with 5% BSA (Gibco) in PBS containing 0.05% Tween-20 (Merck Millipore, Billerica, Mass., USA). The membrane was incubated with antibodies against phosphor-ERK (Thr202/Tyr204), ERK, phosphor-JNK (Thr183/Tyr185), SAPK/JNK, phosphor-p38MAPK (Thr180/thr182), and p38MAPK, overnight at 4° C. All antibodies were purchased from Cell signaling technology. Target proteins were detected with Immobilon Western Chemiluminescent HRP Substrate (Merck Millipore).

[3] = system: TLR4/MD2 on the surface of Raw264.7 cells; assay: LPS-induced TLR4/MD2 internalization, confocal microscopy; format: cell-based; conditions: LPS/PLH compared to LPS treated cells
Procedure: Raw264.7 cells were divided into two groups: 1) LPS treated group and 2) LPS/PLAG treated group. For LPS treated group, cells were stimulated with LPS (100 ng/ml) for 0, 15, 30, 45, 60, 75, 90, 105, 120 minutes. For LPS/PLAG treatment, cells were pre-incubated with PLAG (100 μg/ml) for 1 hour and then stimulated with LPS (100 ng/ml) for 0, 15, 30, 45, 60, 75, 90, 105, 120 minutes. To detect TLR4/MD2 on the membrane surface, cells were fixed with 2% paraformaldehyde (Sigma-Aldrich) and were blocked with PBS containing 1% BSA (Gibco, Waltham, Mass., USA). They were incubated with rabbit anti-TLR4/MD2 antibody (Thermo) and Alexa488 conjugated anti-rabbit IgG (Invitrogen). For confocal microscopy analysis, cells were washed with PBS and mounted in DAPI-containing fluorescence microscopy mounting medium (Invitrogen). Samples were analyzed with a laser scanning confocal microscope (Carl Zeiss, Oberkochen, Germany).
Raw264.7 cells were divided into two groups: 1) LPS treated group and 2) LPS/PLAG treated group. […] These were analyzed by confocal microscopy. […]
To detect TLR4/MD2 on the membrane surface, cells were fixed with 2% paraformaldehyde (Sigma-Aldrich) and were blocked with PBS containing 1% BSA (Gibco, Waltham, Mass., USA). […] For confocal microscopy analysis, cells were washed with PBS and mounted in DAPI-containing fluorescence microscopy mounting medium (Invitrogen). […]

For `CCCCC/C=C\C/C=C\CCCCCCCC(=O)OC(COC(C)=O)COC(=O)CCCCCCCCCCCCCCC` (racemic) [PLAG, 1-palmitoyl-2-linoleoyl-3-acetylglycerol], the “level of HMGB1 and S100A9 induced by radiation” value (HMGB1 and S100A9) was “significantly decreased”, the pulmonary capillary leakage ([1]; 6.11Gy TBI, day 3, dose-dependently) was “less pulmonary capillary leakage” and the “leakage erythrocyte at the interstitial tissue” value ([1]; PLAG 50mpk and 250mpk) was “not observed”. For the same compound, the “IMQ-induced phosphorylation of ERK, JNK, p38 MAPK” value [2] was “attenuated”.
With `CCCCC/C=C\C/C=C\CCCCCCCC(=O)OC(CO)COC(=O)CCCCCCCCCCCCCCC` (centres unmarked) [PLH, palmitic linoleic hydroxyl glycerol, reference compound] the “effect on TLR4/MD2 internalization and return to the surface” value [3] was “had no effect”.
